From patent US11198850B2, “Method for manufacturing telencephalon or progenitor tissue thereof” (RIKEN, priority 2013, dated 2021)

Tests used:
[1] = system: Human ES cells (KhES-1) aggregates; test: Cortical hem formation in human ES cell aggregates with Wnt signal enhancer, immunohistostaining on day 42; format: cell-based; details: 3 μM CHIR99021 alone, day 18 to day 42
Procedure: Human ES cells (KhES-1; a fluorescence protein gene Venus is knocked-in a telencephalon specific gene Foxg1) were dispersed to single cells by a trypsin treatment, and according to the SFEBq method (Nakano et al, Cell Stem Cell, 2012), aggregates were formed and subjected to suspension aggregate culture at 37° C. in the presence of 5% CO2 for differentiation induction. The dispersed 9000 human ES cells were seeded in each well of a V bottom 96 well plate applied with a low cell adsorptive surface coating, and a growth factor-free G-MEM medium (Gibco/Invitrogen) added with 20% KSR (Knockout Serum Replacement), 0.1 mM non-essential amino acid solution (Gibco/Invitrogen), 1 mM sodium pyruvate solution (Sigma), and 0.1 mM 2-mercaptoethanol was used as the medium for differentiation induction. […] The aggregate was analyzed on day 1 and day 34 from the start of differentiation induction, and analyzed by immunohistostaining on day 42. […] The culture medium used for the culture from day 18 to day 42 was DMEM/F12 medium (Gibco/Invitrogen) added with 1% N2 supplement (Gibco/Invitrogen), 1% lipid concentrate (Chemically defined lipid concentrate, Gibco/Invitrogen), 10% FBS, 5 μg/ml heparin, 3 μM GSK-3β inhibitor CHIR99021 (Wnt signal enhancer) and the aggregates were analyzed by immunohistostaining on day 42.

[2] = system: hESC-derived cortical neuroepithelium; test: Notch signal inhibition in hESC-derived cortical neuroepithelium, neural stem cell/progenitor and neuron markers; format: cell-based, human; details: 10 μM DAPT, days 70-77
Excerpt: (A-C) Immunostaining of Pax6 and Sox2 in apical and basal (SVZ) neural stem cells/progenitors within the hESC-derived cortical neuroepithelium on day 91. The majority of Sox2 positive cells express Pax6 (C). (D-F) Effects of Notch signal inhibition on the expression of neural stem cells/progenitor and neuron markers in cortical neuroepithelium. […] An increase of cortical neuroepithelium thickness also observed after the treatment (F). ***P<0.001, Student t tests between with DAPT (n=6) and without DAPT (n=5) treatment. (G) Schematic of oRG neural stem cells/progenitors in the human fetal outer SVZ. (H and H′) Phospho-vimentin+ neural stem cells/progenitors in the SVZ expressed Sox2. (I) Phospho-vimentin+ neural stem cells/progenitors in the SVZ with a long […] process extending toward the pial surface. (J) Phospho-vimentin+ SVZ neural stem cells/progenitors with a basal process carried a pericentin+ centrosome in the neurons. During mitosis, two pericentin+ centrioles were found for dividing cells. […] (Scale bars, 100 μm in A-E; 25 μm in H-K.)
Cortical neuroepithelium induced from hESCs were subjected to culture under the following conditions. On day 18, the cell aggregates were transferred to a 9-cm Petri dish (non-cell adhesive surface coat) and further cultured in DMEM/F12 medium (Gibco/Invitrogen) supplemented with 1% N2 supplement (Gibco/Invitrogen), 1% lipid concentrate (Chemically Defined Lipid Concentrate, Gibco/Invitrogen), 0.25 mg/mL Fungizone, 100 U/mL penicillin, and 100 μg/mL streptomycin at 37° C. in the presence of 5% CO2 and 40% O2. From day 35, 10% FBS, 5 μg/mL heparin, and 1% Matrigel growth factor-reduced (BD Biosciences) were also added to the medium. To prevent cell death in the central portions of cell aggregates, the aggregates were cut into half-size with fine forceps under a dissecting microscope every 2 wk after day 35 and were cultured using a lumox culture dish (SARSTEDT; O2 penetrating) after day 56. From day 70, the concentration of Matrigel was increased (final 2%) and B27 supplement (Gibco/Invitrogen) was added to the medium.

[3] = system: Human ES cells (KhES-1) aggregates; test: Induction of basal ganglia progenitor tissue (LGE/MGE) in human ES cell aggregates by Shh signal agonist, immunohistostaining on day 35; format: cell-based
Procedure: Human ES cells (KhES-1; a fluorescence protein gene Venus is knocked-in a telencephalon specific gene Foxg1) were dispersed to single cells by a trypsin treatment, and according to the SFEBq method (Nakano et al, Cell Stem Cell, 2012), aggregates were formed and subjected to suspension aggregate culture at 37° C. in the presence of 5% CO2 for differentiation induction. The dispersed 9000 human ES cells were seeded in each well of a V bottom 96 well plate applied with a low cell adsorptive surface coating, and a growth factor-free G-MEM medium (Gibco/Invitrogen) added with 20% KSR (Knockout Serum Replacement), 0.1 mM non-essential amino acid solution (Gibco/Invitrogen), 1 mM sodium pyruvate solution (Sigma), and 0.1 mM 2-mercaptoethanol was used as the medium for differentiation induction. To suppress dispersion-induced cell death, 20 μM of a ROCK inhibitor Y-27632 was added for the first 3 days of differentiation induction, and the concentration thereof was reduced to half for the next 3 days. From day 0 to day 18 after the start of the differentiation induction, Wnt signal inhibitor IWR-1-end (3 μM) and TGFβ signal inhibitor SB431542 (5 μM) were added and allowed to react. On day 18 from the start of differentiation induction, these aggregates were transferred to a 9 cm petri dish applied with low cell-adhesive surface coating, and suspension culture was performed at 37° C., in the presence of 5% CO2, 40% O2. From day 18 to day 35, DMEM/F12 medium (Gibco/Invitrogen) added with 1% N2 supplement (Gibco/Invitrogen), and 1% lipid concentrate (Chemically defined lipid concentrate, Gibco/Invitrogen) was used. From day 35, the medium further added with 10% FBS, 5 μg/ml heparin, and 1% Matrigel growth factor reduced (BD Bioscience) was used. The aggregate was analyzed on day 1 and day 34 from the start of differentiation induction, and analyzed by immunohistostaining on day 42.
Up to day 35 of differentiation induction, cells were cultured under culture conditions similar to those of Example 1. That is, human ES cell aggregates were cultured in a V bottom 96 well plate up to 18 days after differentiation induction, suspended aggregates were transferred to a non-cell adhesive petri dish (diameter […]), and suspension culture was performed at 37° C. in the presence of 5% CO2, 40% O2 from day 18 to day 35 of differentiation induction. However, Sonic hedgehog (Shh) signal agonist SAG was added to the culture medium of Example 1 at a final concentration of 30 nM or 500 nM only in the period of from day 15 to day 21 and allowed to react. The aggregate was analyzed by immunohistostaining on day 35.
Up to day 35 of differentiation induction, cells were cultured under culture conditions similar to those of Example 2. That is, human ES cell aggregates were cultured in a V bottom 96 well plate up to 18 days after differentiation induction, suspended aggregates were transferred to a non-cell adhesive petri dish (diameter 9 cm), and suspension culture was performed at 37° C. in the presence of 5% CO2, 40% O2, from day 18 to day 35 of differentiation induction. However, Shh signal agonist SAG was added to the culture medium at a concentration of 30 nM only in the period of from day 15 to day 21 of differentiation induction. The aggregate was analyzed by immunohistostaining on day 35.
Ventralization of cortical neuroepithelium was performed by adding hedgehog agonist SAG (30 nM or 500 nM) during culture days 15-21. The cell aggregates were fixed on culture day 35.

[4] = system: hESC-derived cortical neuroepithelium; test: Rolling morphogenesis of hESC-derived cortical neuroepithelium with ROCK inhibitor; format: cell-based, human; details: P<0.001 vs control, Fisher's exact test, dihydrochloride
Excerpt: (A-I) Asymmetric progression of rounding morphogenesis of hESC-derived cortical neuroepithelium. Arrows indicate boundary of a cortical neuroepithelium domain in A and rolling epithelium in B-D. Arrowheads indicate rolling epithelium in E. Arrows indicate rounding movements of the neuroepithelium in F-I. (J-L) Effect of the ROCK inhibitor Y-27632 on the rolling of cortical neuroepithelium. […] Treatment group, n=187 neuroepithelium domains; control group, n=130. (M and N) The rolling shape was preferentially observed on the side with strong expression of Otx2 and Coup-TF1 (dorsal and caudal markers). (O-Q) Adjacent formation of neuroepithelium structures of cortex (Pax6+) and LGE (Gsh2+; with GAD65^+ GABAergic neurons underneath) on day 35. The cortical side contacting the LGE domain was opposite to the side with strong rolling (arrow). (R) Interkinetic nuclear migration in the hESC-derived cortical neuroepithelium on day 24 (two-photon imaging). Visualized with partial mixing of pax6::venus reporter hESCs with nonlabeled hESCs. Two daughter cells with both apical and basal processes were generated from an apically dividing progenitor. (Scale bars, 200 μm in A; 100 μm in B-H and J-N; 200 μm in O-Q.) Nuclear counter staining (blue), DAPI.

[5] = 30 nM SAG, day 15 to day 21, analysed day 35

Cc1cnc(-c2cnc(NCCNc3ccc(C#N)cn3)nc2-c2ccc(Cl)cc2Cl)[nH]1 [CHIR99021, 6-[[2-[[4-(2,4-Dichlorophenyl)-5-(5-methyl-1H-imidazol-2-yl)-2-pyrimidinyl]amino]ethyl]amino]-3-pyridinecarbonitrile]
aggregates with selective formation of cortical hem [1]: not less than 80%

C[C@H](NC(=O)Cc1cc(F)cc(F)c1)C(=O)N[C@H](C(=O)OC(C)(C)C)c1ccccc1 [DAPT]
Satb2+ neurons [2]: increased | Sox2+ Tbr2− cells after the treatment [2]: rarely remained | Sox2− Tbr2+ intermediate neural stem cells/progenitors [2]: increased | cortical neuroepithelium thickness ([2]; P<0.001): increase

CNC1CCC(N(Cc2cccc(-c3ccncc3)c2)C(=O)c2sc3ccccc3c2Cl)CC1 (stereo not shown) [SAG]
Gsh2 (LGE marker) expression in foxg1::Venus-expressing neural epithelium ([3]; 30 nM SAG for days 15-21): a substantial portion of foxg1::Venus-expressing neural epithelium expressed Gsh2 | aggregates with Gsh2 positive LGE neuroepithelium [3, 5]: not less than 70% | aggregates with continuous self-formation of cerebral cortex and basal ganglion in one aggregate [3, 5]: not less than 50% | percentage of Gsh2+ neuroepithelium in Foxg1+ telencephalic neuroepithelium ([3]; 30 nM SAG, days 15-21): increased | percentage of Pax6+ neuroepithelium in Foxg1+ telencephalic neuroepithelium ([3]; 30 nM SAG, days 15-21): partially suppressed | aggregates with Foxg1::venus positive and Nkx2.1 positive MGE neuroepithelium ([3]; 500 nM SAG, day 15 to day 21, analysed day 35): not less than 80% | Nkx2.1+ neuroepithelium as share of Foxg1+ telencephalic NE ([3]; 500 nM SAG, days 15-21): 40-50% | expression of both Pax6 and Gsh2 ([3]; 500 nM SAG, days 15-21): efficiently suppressed | MGE marker Nkx2.1 expression ([3]; high concentrations of SAG (500 nM), days 15-21): induced the MGE marker Nkx2.1 at the cost of Pax6 and Gsh2 expression

C[C@@H](N)[C@H]1CC[C@H](C(=O)Nc2ccncc2)CC1.Cl.Cl [Y-27632, (+)-(R)-trans-4-(1-aminoethyl)-N-(4-pyridyl)cyclohexanecarboxamide dihydrochloride]
rolling morphogenesis of cortical neuroepithelium [4]: Attenuation of rolling morphogenesis | rolling morphogenesis of cortical neuroepithelium ([4]; listed as ROCK inhibitor): attenuated
